Read-outs that look alike come from different tables or passages of the source.
Columns and labels:
[1] = target: T1, soluble guanylate cyclase (sGC) (Homo sapiens (Human), UniProt Q02108+Q02153); experiment: sGC-HEK-cGMP assay run in the absence of SNP (HEK WC assay); type: cell-based; conditions: compound at 30 μM, absence of SNP
Experimental: Human embryonic kidney cells (HEK293), endogenously expressing soluble guanylate cyclase (sGC), were used to evaluate the activity of test compounds. Compounds stimulating the sGC receptor should cause an increase in the intracellular concentration of cGMP. HEK 293 cells were seeded in Dulbecco's Modification of Eagle's Medium supplemented with fetal bovine serum (10% final) and L-glutamine (2 mM final) in a 200 μL volume at a density of 1×10^5 cells/well in a poly-D-lysine coated 96 well flat bottom plate and grown overnight at 37° C. Medium was aspirated and cells were washed with 1× Hank's Buffered Saline Salt Solution (200 μL). Cells were then incubated for 15 minutes at 37° C. with 0.5 mM 3-isobutyl-1-methylxanthine (200 μL). Test article was then added to the assay mixture (2 μL) and incubated at 37° C. for 10 minutes. After the 10 minute incubation, the assay mixture was aspirated and 0.1M HCl (200 μL) was added to the cells. The plate was incubated at 4° C. for 30 minutes in the 0.1M HCl to stop the reaction and lysed the cells. The plates were then centrifuged at 1,200 g for 5 minutes at room temperature. Supernatants were collected and transferred to a new flat bottom 96 well plate for analysis. Vehicle controls were carried out using DMSO (1%). A known sGC stimulator, BAY 41-2272, was used as the positive control. Samples were diluted with an equal volume of 1 M Ammonium Acetate (pH 7) to neutralize samples for better chromatography. A 2× cGMP standard curve was prepared in 0.1 M HCl and then diluted with an equal volume of 1 M Ammonium Acetate, with the following final concentrations in nM: 1024, 512, 256, 128, 64, 32, 16, 8, 4, 2, 1. cGMP concentrations were determined from each sample using the LC/MS conditions (Table 2 below) and calculated standard curve. EC50 values were calculated from concentration-response curves generated with GraphPad Prism Software.

[2] = target: T1, soluble guanylate cyclase (sGC); experiment: sGC-HEK-cGMP assay run with SNP incubation (HEK WC assay); type: cell-based; conditions: for HEK WC Assay (fold increase at 30 μM in the presence of 10 μM SNP): compound at 30 μM; for EC50: in the presence of 10 uM SNP
Summary of the method: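 HEK293 cells with endogenous sGC were pretreated with 0.5 mM IBMX for 15 min at 37 °C, then exposed to test compound plus sodium nitroprusside for 10 min at 37 °C.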

[3] = read-out: HEK WC Assay (% Emax at 1 μM with 10 uM SNP)
[4] = read-out: HEK WC Assay (% Emax at 10 μM with 10 uM SNP)
[5] = read-out: HEK WC Assay (% Emax at 30 μM with 10 uM SNP)

T1 sequence (Q02153 whole entry): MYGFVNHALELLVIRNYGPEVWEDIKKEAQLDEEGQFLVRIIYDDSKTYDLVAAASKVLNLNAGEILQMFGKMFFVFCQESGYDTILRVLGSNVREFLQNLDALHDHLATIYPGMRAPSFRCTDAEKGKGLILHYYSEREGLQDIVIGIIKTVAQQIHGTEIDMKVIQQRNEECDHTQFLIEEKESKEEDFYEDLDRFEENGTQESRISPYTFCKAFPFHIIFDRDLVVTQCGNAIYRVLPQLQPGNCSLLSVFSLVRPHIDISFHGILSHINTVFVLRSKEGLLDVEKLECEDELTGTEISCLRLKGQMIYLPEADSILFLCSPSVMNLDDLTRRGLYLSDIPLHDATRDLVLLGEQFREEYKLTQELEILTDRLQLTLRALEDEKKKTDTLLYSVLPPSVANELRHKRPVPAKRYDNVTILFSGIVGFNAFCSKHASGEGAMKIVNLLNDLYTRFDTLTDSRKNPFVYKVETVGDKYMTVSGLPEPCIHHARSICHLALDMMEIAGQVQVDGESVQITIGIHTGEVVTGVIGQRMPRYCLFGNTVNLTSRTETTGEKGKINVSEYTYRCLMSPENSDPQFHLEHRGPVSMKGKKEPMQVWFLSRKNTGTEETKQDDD
T1 sequence (Q02108 whole entry): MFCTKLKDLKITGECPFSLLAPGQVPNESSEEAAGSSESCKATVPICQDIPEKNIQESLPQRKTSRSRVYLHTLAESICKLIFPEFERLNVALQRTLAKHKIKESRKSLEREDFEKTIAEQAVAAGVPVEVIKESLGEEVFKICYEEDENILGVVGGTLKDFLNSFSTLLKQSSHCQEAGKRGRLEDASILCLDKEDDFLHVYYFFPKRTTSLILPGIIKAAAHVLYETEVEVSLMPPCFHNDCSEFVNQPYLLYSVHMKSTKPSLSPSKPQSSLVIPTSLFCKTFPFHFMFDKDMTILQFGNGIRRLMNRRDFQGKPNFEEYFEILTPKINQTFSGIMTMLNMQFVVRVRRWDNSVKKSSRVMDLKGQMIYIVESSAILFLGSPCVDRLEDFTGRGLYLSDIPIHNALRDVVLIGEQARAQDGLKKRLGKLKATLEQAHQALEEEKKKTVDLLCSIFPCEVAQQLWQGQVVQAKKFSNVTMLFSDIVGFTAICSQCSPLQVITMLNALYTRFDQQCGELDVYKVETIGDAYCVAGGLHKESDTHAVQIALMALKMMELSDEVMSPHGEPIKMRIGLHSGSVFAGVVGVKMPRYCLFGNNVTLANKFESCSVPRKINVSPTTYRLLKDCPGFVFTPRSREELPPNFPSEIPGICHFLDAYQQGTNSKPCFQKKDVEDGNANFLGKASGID

HEK WC Assay (fold increase at 30 μM in the absence of SNP) [1] | HEK WC Assay (fold increase at 30 μM in the presence of 10 μM SNP) [2] | EC50 [2] [µM] | Emax [2, 3] [%] | Emax [2, 4] [%] | Emax [2, 5] [%] | Emax at 10 µM ([2]; read-out: HEK WC Assay (% Emax at 10 μM/with 10 uM SNP)) [%] | Emax at 30 µM ([2]; read-out: HEK WC Assay (% Emax at 30 μM/with 10 uM SNP)) [%] | Structure (SMILES)
E (E = 10 to <20 fold increase) | E (E = 10 to <20 fold increase) | < 20 | 60 to 80 | 80 to 100 | 80 to 100 |  |  | CC1(C(=O)Nc2cnc(-c3cc(-c4ccon4)n(Cc4ccccc4F)n3)nc2N)CCCCC1 [Compound I-231]
B (B = 1 to <2 fold increase) | B (B = 1 to <2 fold increase) |  |  | 0 to 10 | 0 to 10 |  |  | Fc1ccccc1Cn1nc(-c2ccccn2)cc1-n1cncn1 [Compound I-289]
D (D = 5 to <10 fold increase) | E (E = 10 to <20 fold increase) | 20 to 40 | 20 to 40 | 40 to 60 | 40 to 60 |  |  | Nc1nc(-c2cc(-c3ccon3)n(Cc3ccccc3F)n2)ncc1NC(=O)C(F)(F)c1ccccc1 [Compound I-244]
E (E = 10 to <20 fold increase) | E (E = 10 to <20 fold increase) | < 20 | 60 to 80 | 60 to 80 | 60 to 80 |  |  | CC(C)=CC(=O)Nc1cnc(-c2cc(-c3ccon3)n(Cc3ccccc3F)n2)nc1N [Compound I-240]
D (D = 5 to <10 fold increase) | E (E = 10 to <20 fold increase) | < 20 | 40 to 60 | 60 to 80 | 60 to 80 |  |  | Nc1nc(-c2cc(-c3ccon3)n(Cc3ccccc3F)n2)ncc1NC(=O)/C=C/c1ccccc1 [Compound I-239]
C (C = 2 to <5 fold increase) | E (E = 10 to <20 fold increase) | 20 to 40 | 20 to 40 | 40 to 60 | 20 to 40 |  |  | CO[C@@](C(=O)Nc1cnc(-c2cc(-c3ccon3)n(Cc3ccccc3F)n2)nc1N)(c1ccccc1)C(F)(F)F [Compound I-229]
B (B = 1 to <2 fold increase) | B (B = 1 to <2 fold increase) |  |  |  |  |  |  | Oc1cc(-c2cccnc2)nc(-c2cc(-c3ccon3)n(Cc3ccccc3F)n2)n1 [Compound I-300]
B (B = 1 to <2 fold increase) | C (C = 2 to <5 fold increase) |  |  | 10 to 20 | 20 to 40 |  |  | Cc1cc(O)nc(-c2cc(-c3ccon3)n(Cc3ccccc3F)n2)n1 [Compound I-298]

More lines, now with the values behind:

Structure (SMILES) | HEK WC Assay (fold increase at 30 μM in the absence of SNP) [1] | HEK WC Assay (fold increase at 30 μM in the presence of 10 μM SNP) [2] | EC50 [2] [µM] | Emax [2, 3] [%] | Emax [2, 4] [%] | Emax [2, 5] [%] | Emax at 10 µM ([2]; read-out: HEK WC Assay (% Emax at 10 μM/with 10 uM SNP)) [%] | Emax at 30 µM ([2]; read-out: HEK WC Assay (% Emax at 30 μM/with 10 uM SNP)) [%]
c1cnc(-c2cc(-c3ccon3)n(Cc3cncnc3)n2)nc1 [Compound I-208] | B (B = 1 to <2 fold increase) | D (D = 5 to <10 fold increase) | 100 to 300 | 0 to 10 | 10 to 20 | 10 to 20 |  | 
O=C(Nc1cnc(-c2cc(-c3ncco3)n(Cc3ccccc3F)n2)nc1O)c1ccccc1 [Compound I-159] | B (B = 1 to <2 fold increase) | D (D = 5 to <10 fold increase) |  |  | 20 to 40 | 20 to 40 |  | 
C/C=C(\C)C(=O)Nc1cnc(-c2cc(-c3ccon3)n(Cc3ccccc3F)n2)nc1N [Compound I-227] | F (F = 20 to <30 fold increase) | F (F = 20 to <30 fold increase) | < 20 | 40 to 60 | 60 to 80 | 60 to 80 |  | 
Nc1nc(-c2cc(-c3ccon3)n(Cc3ccccc3F)n2)ncc1NC(=O)c1cccc(C(F)(F)F)c1 [Compound I-215] | E (E = 10 to <20 fold increase) | F (F = 20 to <30 fold increase) | < 20 | 80 to 100 | 80 to 100 | 80 to 100 |  | 
CC(C)(O)C(=O)Nc1cnc(-c2cc(-c3ccon3)n(Cc3ccccc3F)n2)nc1N [Compound I-209] | C (C = 2 to <5 fold increase) | E (E = 10 to <20 fold increase) | 20 to 40 | 10 to 20 | 20 to 40 | 40 to 60 |  | 
Nc1nc(-c2cc(-c3ccon3)n(Cc3ccccc3F)n2)ncc1NC(=O)c1cccc(O)n1 [Compound I-193] | E (E = 10 to <20 fold increase) | E (E = 10 to <20 fold increase) | < 20 | 10 to 20 | 40 to 60 | 60 to 80 |  | 
Nc1nc(-c2cc(-c3ccon3)n(Cc3ccccc3F)n2)ncc1NC(=O)CN1C(=O)c2ccccc2C1=O [Compound I-212] | D (D = 5 to <10 fold increase) | E (E = 10 to <20 fold increase) | < 20 | 60 to 80 | 60 to 80 | 60 to 80 |  | 
COc1ccc(CNc2nc(-c3cc(-c4ccon4)n(Cc4ccccc4F)n3)ncc2C(C)(C)O)cc1 [Compound I-135] | C (C = 2 to <5 fold increase) | D (D = 5 to <10 fold increase) |  |  | 10 to 20 | 10 to 20 | 0 to 10 | 0 to 10
Nc1nc(-c2cc(-c3ccon3)n(Cc3ccccc3F)n2)ncc1NC(=O)CCCCl [Compound I-167] | D (D = 5 to <10 fold increase) | G (G = 30 to <40 fold increase) | < 20 | 60 to 80 | 80 to 100 | 100 to 120 |  | 
O=[N+]([O-])c1cnc(-c2cc(-c3ccon3)n(Cc3ccccc3F)n2)nc1O [Compound I-170] | B (B = 1 to <2 fold increase) | B (B = 1 to <2 fold increase) |  | 0 to 10 | 0 to 10 |  |  | 
CNc1cnc(-c2cc(-c3ccon3)n(Cc3ccccc3F)n2)nc1N [Compound I-143] | C (C = 2 to <5 fold increase) | D (D = 5 to <10 fold increase) | 40 to 60 |  | 40 to 60 | 40 to 60 |  | 
O=S(=O)(c1cnc(-c2cc(-c3ccon3)n(Cc3ccccc3F)n2)nc1O)N1CCOCC1 [Compound I-224] | C (C = 2 to <5 fold increase) | E (E = 10 to <20 fold increase) | < 20 | 20 to 40 | 40 to 60 | 40 to 60 |  | 
c1cnc(-c2cc(-c3ccon3)n(Cc3cscn3)n2)nc1 [Compound I-204] | B (B = 1 to <2 fold increase) | C (C = 2 to <5 fold increase) |  | 0 to 10 | 0 to 10 | 0 to 10 |  | 
c1cnc(-c2cc(-c3ccon3)n(Cc3cnccn3)n2)nc1 [Compound I-221] | B (B = 1 to <2 fold increase) | C (C = 2 to <5 fold increase) |  | 0 to 10 | 0 to 10 | 10 to 20 |  | 
Clc1ccccc1Cn1nc(-c2ncccn2)cc1-c1ccon1 [Compound I-200] | B (B = 1 to <2 fold increase) | C (C = 2 to <5 fold increase) | 300 to 600 | 0 to 10 | 0 to 10 | 0 to 10 |  | 
Nc1cnc(-c2cc(-c3ncco3)n(Cc3ccccc3F)n2)nc1N [Compound I-149] | C (C = 2 to <5 fold increase) | D (D = 5 to <10 fold increase) | 20 to 40 |  | 60 to 80 | 80 to 100 |  | 
CC(F)(F)C(=O)Nc1cnc(-c2cc(-c3ccon3)n(Cc3ccccc3F)n2)nc1N [Compound I-226] | E (E = 10 to <20 fold increase) | F (F = 20 to <30 fold increase) | < 20 | 40 to 60 | 80 to 100 | 60 to 80 |  | 

From US10189809B2, “SGC stimulators” (Ironwood Pharmaceuticals, Inc., priority 2010, dated 2019)
